Source: patent US4156724A, “N-acylamino-alpha-arylacetamido cephalosporins and antibacterial compositions and methods containing them” (Sumitomo Chemical Company, Limited, priority 1974, dated 1979)
≈ marks a conversion by molar mass, not a printed value. Read-outs that look alike come from different tables or passages of the source.

How the values were obtained:
Type in all cases: cell-based
Escherichia coli NIHJ = assay: Minimum Inhibitory Concentration, Escherichia coli NIHJ; conditions: for MIC: read-out: Minimum Inhibitory Concentration
Method: (§1) anti-microbial activity tests were carried out on the compounds obtained in the Examples.

[1] = system: Staphylococcus aureus FS 289; assay: Minimum Inhibitory Concentration, Staphylococcus aureus FS 289
Method: as §1
*Staphylococcus aureus FS 289: strain resistant to penicillin

[2] = system: Staphylococcus aureus 209 P; assay: Minimum Inhibitory Concentration, Staphylococcus aureus 209 P; conditions: for MIC: read-out: Minimum Inhibitory Concentration
Method: as §1

[3] = system: Klebsiella pneumoniae 602; assay: Minimum Inhibitory Concentration, Klebsiella pneumoniae 602; conditions: for Minimum Inhibitory Concentration: Klebsiella pneumoniae 602
Method: as §1

[4] = system: Pseudomonas aeruginosa 104; assay: Minimum Inhibitory Concentration, Pseudomonas aeruginosa 104
Method: as §1

[5] = system: Enterobacter aerogeneus No. 75; assay: Minimum Inhibitory Concentration, Enterobacter aerogeneus No. 75
Method: as §1

Proteus vulgaris HX 19 = assay: Minimum Inhibitory Concentration, Proteus vulgaris HX 19
Method: as §1

Serratia No. 72 = assay: Minimum Inhibitory Concentration, Serratia No. 72
Method: as §1

[6] = FS289, Staphylococcus aureus FS 289, strain resistant to penicillin, read-out: Minimum Inhibitory Concentration
[7] = Klebsiella pneumoniae, 602, Klebsiella pneumoniae 602, read-out: Minimum Inhibitory Concentration
[8] = Pseudomonas aeruginosa 104, read-out: Minimum Inhibitory Concentration
[9] = Enterobacter aerogeneus No. 75, read-out: Minimum Inhibitory Concentration
[10] = HX19, Proteus vulgaris HX 19, read-out: Minimum Inhibitory Concentration
[11] = Staphylococcus aureus FS 289, strain resistant to penicillin

SMILES	MIC (Escherichia coli NIHJ; Escherichia coli NIHJ) [µg/mL]	MIC [1, 6] [µg/mL]	MIC ([2]; Staphylococcus aureus 209 P) [µg/mL]	MIC [3, 7] [µg/mL]	MIC [4, 8] [µg/mL]	MIC [5, 9] [µg/mL]	MIC (Proteus vulgaris HX 19; [10]) [µg/mL]	MIC (Serratia No. 72) [µg/mL]	further results
Cc1nnc(SCC2=C(C(=O)O)N3C(=O)C(NC(=O)[C@H](NC(=O)c4cnccc4O)c4ccc(O)cc4)C3SC2)s1 (stereo partly drawn) [Example 125, 7-[D-α-(4-Hydroxypyridine-3-carbonamido)-α-p-hydroxyphenylacetamido]-3-(2-methyl-1,3,4-thiadiazol-5-yl)thiomethyl-3-cephem-4-carboxylic Acid]	6.25 (≈ 10.2 µM)	6.25 (≈ 10.2 µM)	0.39 (≈ 0.634 µM)	6.25 (≈ 10.2 µM)	12.5 (≈ 20.3 µM)	12.5 (≈ 20.3 µM)	0.1 (≈ 0.163 µM)	50 (≈ 81.3 µM)	–
NC(=O)Nc1ccc(C(NC(=O)c2cnccc2O)C(=O)NC2C(=O)N3C(C(=O)O)=C(CSc4nnc(CO)s4)CSC23)cc1 (stereo not shown) [Example 47]	12.5 (≈ 18.6 µM)	6.25 (≈ 9.29 µM)	0.78 (≈ 1.16 µM)	3.13 (≈ 4.65 µM)	12.5 (≈ 18.6 µM)	12.5 (≈ 18.6 µM)	0.39 (≈ 0.58 µM)	50 (≈ 74.3 µM)	–
CN(C)c1ccc2ncc(C(=O)NC(C(=O)NC3C(=O)N4C(C(=O)[O-])=C(CSc5nnnn5C)CSC34)c3ccc(NC(N)=O)cc3)c(O)c2n1.[Na+] (stereo not shown) [Example 29]	–	–	–	–	–	–	–	–	Minimum Inhibitory Concentration (Escherichia coli NIHJ; Escherichia coli NIHJ): 1.56 µg/mL; Minimum Inhibitory Concentration [1, 11]: 6.25 µg/mL; Minimum Inhibitory Concentration ([2]; Staphylococcus aureus 209 P): 0.78 µg/mL; Minimum Inhibitory Concentration [3]: 1.56 µg/mL; Minimum Inhibitory Concentration ([4]; Pseudomonas aeruginosa 104): 3.13 µg/mL; Minimum Inhibitory Concentration ([5]; Enterobacter aerogeneus No. 75): 3.13 µg/mL; Minimum Inhibitory Concentration (Proteus vulgaris HX 19; Proteus vulgaris HX 19): 0.2 µg/mL; Minimum Inhibitory Concentration (Serratia No. 72): 12.5 µg/mL
O=C(O)C1=C(CSc2nncs2)CSC2C(NC(=O)C(NC(=O)c3cncnc3O)c3ccc(CO)cc3)C(=O)N12 (stereo not shown) [Example 95]	25 (≈ 40.6 µM)	12.5 (≈ 20.3 µM)	0.78 (≈ 1.27 µM)	12.5 (≈ 20.3 µM)	25 (≈ 40.6 µM)	25 (≈ 40.6 µM)	0.78 (≈ 1.27 µM)	50 (≈ 81.2 µM)	–
CSc1cnc2c(O)c(C(=O)NC(C(=O)NC3C(=O)N4C(C(=O)[O-])=C(COC(C)=O)CSC34)c3cccc(O)c3)cnc2n1.[Na+] (stereo not shown) [Example 140]	–	–	–	–	–	–	–	–	Minimum Inhibitory Concentration (Escherichia coli NIHJ; Escherichia coli NIHJ): 3.13 µg/mL; Minimum Inhibitory Concentration [1, 11]: 6.25 µg/mL; Minimum Inhibitory Concentration ([2]; Staphylococcus aureus 209 P): 0.78 µg/mL; Minimum Inhibitory Concentration [3]: 6.25 µg/mL; Minimum Inhibitory Concentration ([4]; Pseudomonas aeruginosa 104): 6.25 µg/mL; Minimum Inhibitory Concentration ([5]; Enterobacter aerogeneus No. 75): 12.5 µg/mL; Minimum Inhibitory Concentration (Proteus vulgaris HX 19; Proteus vulgaris HX 19): 1.56 µg/mL; Minimum Inhibitory Concentration (Serratia No. 72): 50 µg/mL
CC(=O)OCC1=C(C(=O)O)N2C(=O)C(NC(=O)[C@H](NC(=O)c3cncnc3O)c3ccc(O)cc3)C2SC1 (stereo partly shown) [Example 118]	12.5 (≈ 23 µM)	6.25 (≈ 11.5 µM)	0.39 (≈ 0.718 µM)	25 (≈ 46 µM)	6.25 (≈ 11.5 µM)	25 (≈ 46 µM)	0.39 (≈ 0.718 µM)	> 200	–
Cc1nnc(SCC2=C(C(=O)O)N3C(=O)C(NC(=O)[C@H](NC(=O)c4cnc5cccnc5c4O)c4ccc(O)cc4)C3SC2)s1 (stereo partly shown) [Example 129]	1.56 (≈ 2.34 µM)	3.13 (≈ 4.7 µM)	0.78 (≈ 1.17 µM)	1.56 (≈ 2.34 µM)	3.13 (≈ 4.7 µM)	3.13 (≈ 4.7 µM)	0.1 (≈ 0.15 µM)	12.5 (≈ 18.8 µM)	–
Nc1cccc(C(NC(=O)c2cnc3cccnc3c2O)C(=O)NC2C(=O)N3C(C(=O)O)=C(CSc4nnc(CO)s4)CSC23)c1 (stereo not shown) [Example 66]	3.13 (≈ 4.6 µM)	6.25 (≈ 9.18 µM)	0.78 (≈ 1.15 µM)	3.13 (≈ 4.6 µM)	3.13 (≈ 4.6 µM)	3.13 (≈ 4.6 µM)	0.1 (≈ 0.147 µM)	12.5 (≈ 18.4 µM)	–
CC(=O)OCC1=C(C(=O)O)N2C(=O)[C@@H](NC(=O)Cc3cccs3)[C@H]2SC1 [CET, reference compound]	–	–	–	–	–	–	–	> 200	MIC (Escherichia coli NIHJ; Escherichia coli): 12.5 µg/mL (≈ 31.5 µM); MIC ([1]; Staphylococcus aureus, FS289, read-out: Minimum Inhibitory Concentration): 0.78 µg/mL (≈ 1.97 µM); MIC ([2]; Staphylococcus aureus, 209P): 0.1 µg/mL (≈ 0.252 µM); MIC ([3]; Klebsiella pneumoniae, 602, read-out: Minimum Inhibitory Concentration): 0.78 µg/mL (≈ 1.97 µM); MIC ([4]; Pseudomonas aeruginosa, 104, read-out: Minimum Inhibitory Concentration): > 200 µg/mL; MIC ([5]; Enterobacter, NO.75, read-out: Minimum Inhibitory Concentration): > 200 µg/mL; MIC (Proteus vulgaris HX 19; Proteus vulgaris, HX19, read-out: Minimum Inhibitory Concentration): 3.13 µg/mL (≈ 7.9 µM)
CC(=O)OCC1=C(C(=O)[O-])N2C(=O)C(NC(=O)C(NC(=O)c3cnc4cncnc4c3O)c3ccc(O)cc3)C2SC1.[Na+] (stereo not shown) [Example 141]	–	–	–	–	–	–	–	–	Minimum Inhibitory Concentration (Escherichia coli NIHJ; Escherichia coli NIHJ): 6.25 µg/mL; Minimum Inhibitory Concentration [1, 11]: 6.25 µg/mL; Minimum Inhibitory Concentration ([2]; Staphylococcus aureus 209 P): 0.78 µg/mL; Minimum Inhibitory Concentration [3]: 6.25 µg/mL; Minimum Inhibitory Concentration ([4]; Pseudomonas aeruginosa 104): 6.25 µg/mL; Minimum Inhibitory Concentration ([5]; Enterobacter aerogeneus No. 75): 12.5 µg/mL; Minimum Inhibitory Concentration (Proteus vulgaris HX 19; Proteus vulgaris HX 19): 0.78 µg/mL; Minimum Inhibitory Concentration (Serratia No. 72): 50 µg/mL
Cn1nnnc1SCC1=C(C(=O)O)N2C(=O)C(NC(=O)C(NC(=O)c3cnccc3O)c3cccc(N)c3)C2SC1 (stereo not shown) [Example 57]	6.25 (≈ 10.5 µM)	6.25 (≈ 10.5 µM)	0.39 (≈ 0.653 µM)	6.25 (≈ 10.5 µM)	6.25 (≈ 10.5 µM)	12.5 (≈ 20.9 µM)	0.1 (≈ 0.167 µM)	50 (≈ 83.7 µM)	–
